In patent US12226386B2, “Compositions and methods for treating biofilms” (The Regents of the University of California, priority 2018, dated 2025):

How the values were obtained:
[1] = system: Candida and Staphylococcus biofilms; test: biofilm assays (sustained inhibition and disruption), bacterial and fungal; format: cell-based, Candida albicans; Staphylococcus aureus; settings: in both assays (sustained inhibition and disruption)
Protocol: (§1) In vitro biofilm formation was tested using two assays, sustained inhibition and disruption. Both assays assess biofilm formed on polystyrene plates. The first, tests the effects of amino acid solution on a developing biofilm, while the latter tests the effects of the solution on a pre-formed mature biofilm, both compared to media without supplemented amino acids.
(§2) Other amino acids in the blood of animals could combat bacterial and fungal biofilm and therefore may be useful in treating these bacterial and fungal infections that would lie on the external surfaces of infected animals such as humans and could also be used to combat these pathogens on instruments and surfaces that need to be treated. Two types of biofilm assays were performed: a sustained inhibition assay and a disruption assay. The sustained inhibition assay assessed the compound's ability to prevent biofilm development throughout all stages of biofilm formation, while the disruption assay assessed the compound's ability to break up an existing mature biofilm.
(§3) For fungal biofilm assays, all solutions were prepared in RPMI 1640 medium. All bacterial biofilm solutions were prepared in Tryptic Soy Broth (TSB), supplemented with 1% glucose (henceforth referred to as TSB-G). All subsequent procedures were performed in a manner that maintained sterility. A solution of each amino acid to be tested was prepared in weight to volume concentrations ranging from 0.1-5.0%. Amino acids were also tested in combinations. Compound solutions were homogenized with gentle agitation in the dark (4° C., 24 hours) before use.
(§4) Fungal strains were streaked on Yeast Peptone Dextrose (YPD) agar plates and incubated at 30° C. for 48 hours. A single colony from each strain to be tested was inoculated into YPD broth and grown for 12 hours, at 30° C., shaking at 225 rpm. For the fungal biofilm inhibition assay, 1 μl of saturated overnight cell culture was added to either 80 μL of RPMI-1640 or RPMI-1640 supplemented with the amino acid compound solution to be tested, in a 384-well plate. The cells were allowed to adhere to the plate for 90 minutes at 37° C. shaking at 350 rpm. Loosely bound cells were washed once with phosphate buffered saline (PBS) and 80 μl of RPMI-1640, or RPMI-1640 supplemented with the amino acid compound solution was added to the plate. The plate was further incubated for 24 hours at 37° C. shaking at 350 rpm. Media was carefully aspirated and the biofilm was measured by optical density at 600 nm. Twelve replicates were performed for each tested condition and the reported values are normalized to the control (RPMI-1640 media only). For the fungal biofilm disruption assays, 80 μL of RPMI-1640 was added to the plate, along with 1 μL of overnight cell culture. The cells were allowed to adhere to the plate for 90 minutes at 37° C. shaking at 350 rpm. Loosely bound cells were washed once with PBS and 80 μL of RPMI-1640 was added to the plate. The plate was further incubated for 24 hours at 37° C. shaking at 350 rpm. Media was carefully aspirated from the mature biofilm and 80 μL of RPMI-1640, or RPMI-1640 supplemented with the amino acid compound solution to be tested, was gently added to the plate. The plate was further incubated for 24 hours at 37° C. shaking at 350 rpm. Media was carefully aspirated and the biofilm was measured by optical density at 600 nm. Twelve replicates were performed for each tested condition and the reported values are normalized to the control (RPMI-1640 media only).
Bacterial strains were streaked on Blood Agar plates (5% sheep blood in Tryptic Soy Agar) and incubated at 37° C. for 24 hours. A single colony from each strain to be tested was inoculated in a TSB broth and grown for 12 hours, at 37° C. shaking at 225 rpm. For the bacterial biofilm inhibition assays, 1 μL of saturated overnight cell culture was added to either 80 μL of TSB-G, or TSB-G supplemented with the amino acid compound solution to be tested, in a 384-well plate. […]

C. albicans biofilms [2] = test: in vitro sustained inhibition biofilm assay, fungal; format: cell-based, Candida albicans; settings: 1% amino acid, p<0.001
Protocol: (§5) Two types of biofilm assays were performed: a sustained inhibition assay and a disruption assay.
as §3
as §4, with “The cells were allowed to adhere to the plate for 90 minutes at 37° C. shaking at 350 rpm. Loosely bound cells were washed once with phosphate buffered saline (PBS) and 80 μl of RPMI-1640, or RPMI-1640 supplemented with the amino acid compound solution was added to the plate. The plate was further incubated for 24 hours at 37° C. shaking at 350 rpm.” left out, “The cells were allowed to adhere to the plate for 90 minutes at 37° C. shaking at 350 rpm.” left out, “The plate was further incubated for 24 hours at 37° C. shaking at 350 rpm.” left out
The plate was further incubated for 24 hours at 37° C. with shaking (350 rpm). Media was carefully aspirated and the biofilm was measured by optical density at 600 nm.

[3] = system: S. aureus (MRSA) biofilms; test: in vitro biofilm disruption assay, bacterial; format: cell-based; settings: Staphylococcus aureus, 24 h, disruption, S. aureus, 1% amino acid; for inhibition at 1 %: p<0.001, read-out: Reduce B Biofilm
Protocol: as §1, §2, §3
(§6) Bacterial strains were streaked on Blood Agar plates (5% sheep blood in Tryptic Soy Agar) and incubated at 37° C. for 24 hours. A single colony from each strain to be tested was inoculated in a TSB broth and grown for 12 hours, at 37° C. shaking at 225 rpm. For the bacterial biofilm inhibition assays, 1 μL of saturated overnight cell culture was added to either 80 μL of TSB-G, or TSB-G supplemented with the amino acid compound solution to be tested, in a 384-well plate. The cells were allowed to adhere to the plate for 60 minutes at 37° C. without shaking. The media was carefully aspirated and 80 μL of TSB-G, or TSB-G supplemented with the amino acid compound solution was added to the plate. The plate was further incubated for 24 hours at 37° C. without shaking. Media was carefully aspirated and the biofilm was measured by optical density at 600 nm. Eight or twelve replicates were performed for each tested condition and the reported values are normalized to the control (TSB-G media only). For the bacterial biofilm disruption assays, 80 μL of TSB-G was added to the plate, along with 1 μL of overnight cell culture. The cells were allowed to adhere to the plate for 60 minutes at 37° C. with no shaking. The media was carefully aspirated and 80 μL of TSB-G was added to the plate. The plate was further incubated for 24 hours at 37° C. with no shaking. Media was carefully aspirated from the mature biofilm and 80 μL of TSB-G, or TSB-G supplemented with the amino acid to be tested, was gently added to the plate. The plate was further incubated for 24 hours at 37° C. without shaking. Media was aspirated and the biofilm was measured by optical density at 600 nm. Twelve replicates were performed for each tested condition and the reported values are normalized to the control (TSB-G media only).
For disruption assay, 80 μl of TSB-G was added to the plate, along with 1 μl of overnight cell culture. The cells were allowed to adhere to the plate for 60 minutes at 37° C. with no shaking. The media was carefully aspirated and 80 μl of TSB-G was added to the plate. The plate was further incubated for 24 hours at 37° C. with no shaking. Media was carefully aspirated from the mature biofilm and 80 μl of TSB-G, or TSB-G supplemented with the amino acid to be tested, was added drop wise to the plate. The plate was further incubated for 24 hours at 37° C. with no shaking. […]

[4] = system: fungal biofilms (C. albicans); test: biofilm assays (sustained inhibition and/or disruption), fungal; format: cell-based, Candida albicans; settings: in at least one of the two biofilm assays; for anti-biofilm properties against fungal biofilms: administered individually
Protocol: Other amino acids in the blood of animals could combat bacterial and fungal biofilm and therefore may be useful in treating these bacterial and fungal infections that would lie on the external surfaces of infected animals such as humans and could also be used to combat these pathogens on instruments and surfaces that need to be treated. Two types of biofilm assays were performed: a sustained inhibition assay and a disruption assay. The sustained inhibition assay assessed the compound's ability to prevent biofilm development throughout all stages of biofilm formation, while the disruption assay assessed the compound's ability to break up an existing mature biofilm. For fungal biofilm assays, all solutions were prepared in RPMI 1640 medium. All bacterial biofilm solutions were prepared in Tryptic Soy Broth (TSB), supplemented with 1% glucose (henceforth referred to as TSB-G). All subsequent procedures were performed in a manner that maintained sterility. […] Amino acids were also tested in combinations. Compound solutions were homogenized with gentle agitation in the dark (4° C., 24 hours) before use. Fungal strains were streaked on Yeast Peptone Dextrose (YPD) agar plates and incubated at 30° C. for 48 hours. A single colony from each strain to be tested was inoculated into YPD broth and grown for 12 hours, at 30° C., shaking at 225 rpm. For the fungal biofilm inhibition assay, 1 μl of saturated overnight cell culture was added to either 80 μL of RPMI-1640 or RPMI-1640 supplemented with the amino acid compound solution to be tested, in a 384-well plate. The cells were allowed to adhere to the plate for 90 minutes at 37° C. shaking at 350 rpm. Loosely bound cells were washed once with phosphate buffered saline (PBS) and 80 μl of RPMI-1640, or RPMI-1640 supplemented with the amino acid compound solution was added to the plate. The plate was further incubated for 24 hours at 37° C. shaking at 350 rpm. Media was carefully aspirated and the biofilm was measured by optical density at 600 nm. Twelve replicates were performed for each tested condition and the reported values are normalized to the control (RPMI-1640 media only). For the fungal biofilm disruption assays, 80 μL of RPMI-1640 was added to the plate, along with 1 μL of overnight cell culture. The cells were allowed to adhere to the plate for 90 minutes at 37° C. shaking at 350 rpm. Loosely bound cells were washed once with PBS and 80 μL of RPMI-1640 was added to the plate. The plate was further incubated for 24 hours at 37° C. shaking at 350 rpm. Media was carefully aspirated from the mature biofilm and 80 μL of RPMI-1640, or RPMI-1640 supplemented with the amino acid compound solution to be tested, was gently added to the plate. The plate was further incubated for 24 hours at 37° C. shaking at 350 rpm. Media was carefully aspirated and the biofilm was measured by optical density at 600 nm. Twelve replicates were performed for each tested condition and the reported values are normalized to the control (RPMI-1640 media only).

C. albicans biofilms [5] = test: in vitro biofilm disruption assay, fungal; format: cell-based, Candida albicans; settings: 1% amino acid, p<0.001
Protocol: as §5, §3
as §4, with “The cells were allowed to adhere to the plate for 90 minutes at 37° C. shaking at 350 rpm. Loosely bound cells were washed once with phosphate buffered saline (PBS) and 80 μl of RPMI-1640, or RPMI-1640 supplemented with the amino acid compound solution was added to the plate. The plate was further incubated for 24 hours at 37° C. shaking at 350 rpm.” left out, “The cells were allowed to adhere to the plate for 90 minutes at 37° C. shaking at 350 rpm.” left out, “The plate was further incubated for 24 hours at 37° C. shaking at 350 rpm.” left out
The cells were allowed to adhere to the plate for 90 minutes at 37° C. with shaking (350 rpm). […] The plate was further incubated for 24 hours at 37° C. with shaking (350 rpm). […] The plate was further incubated for 24 hours at 37° C. with shaking (350 rpm). Media was carefully aspirated and the biofilm was measured by optical density at 600 nm.

[6] = system: bacterial biofilms (MRSA); test: biofilm assays (sustained inhibition and/or disruption), bacterial; format: cell-based, Staphylococcus aureus; settings: in at least one of the two biofilm assays
Protocol: as §2, §3, §6

How did the “effect on bacterial or fungal biofilms” value [1] turn out when `Cn1cnc(C[C@H](N)C(=O)O)c1` [1-Methylhistidine, 1-methyl-L-histidine] was run?
Its value is “neutral”.

With `CCC(N)C(=O)O` (stereo not drawn) [2 Aminobutyric Acid, 2-aminobutyric acid] as the compound, how does the “effect on bacterial or fungal biofilms” value [1] read?
Its value is “neutral”.

For `Cn1cncc1C[C@H](N)C(=O)O` [3-Methylhistidine, 3-methyl-L-histidine], which “Promote F Biofilm” value (C. albicans biofilms [2]) is on record?
Its value is “● (a single dot [i.e. ●] signifies minor effect (from about 10 to about 30% change))”.

What about the inhibition at 1 % [3] of the same compound?
Its inhibition at 1 % is 10 to 30%.

What about the “effect on fungal biofilm growth” value [4] of the same compound?
Its value is “support (improve) fungal biofilm growth”.

Which results are given for `NCCO` [Ethanolamine, ethanolamine]?
Reduce F Biofilm (C. albicans biofilms [2]): ● (a single dot [i.e. ●] signifies minor effect (from about 10 to about 30% change)); anti-biofilm properties against fungal biofilms [4]: reduction by less than two-fold

`NC(=O)CC[C@H](N)C(=O)O` [Glutamine, L-glutamine] was tested. Which “effect on bacterial or fungal biofilms” value [1] did it give?
Its value is “neutral”.

With `N[C@@H](Cc1c[nH]cn1)C(=O)O` [Histidine, L-histidine] as the compound, how does the “effect on bacterial or fungal biofilms” value [1] read?
The value was “neutral”.

How did the “Reduce F Biofilm” value (C. albicans biofilms [5]) turn out when `N[C@@H](COP(=O)(O)O)C(=O)O` [Phosphoserine, O-phospho-L-serine] was run?
The value was “● (a single dot [i.e. ●] signifies minor effect (from about 10 to about 30% change))”.

And the inhibition at 1 % [3]?
The inhibition at 1 % was 10 to 30%.

And the “anti-biofilm properties against fungal biofilms” value [4]?
The value was “reduction by less than two-fold”.

For `O=C(O)[C@@H]1CCCN1` [Proline, L-proline], which “Reduce F Biofilm” value (C. albicans biofilms [5]) is on record?
Its value is “● (a single dot [i.e. ●] signifies minor effect (from about 10 to about 30% change))”.

And the activation at 1 % ([3]; p<0.001, read-out: Promote B Biofilm)?
Its activation at 1 % is 10 to 30%.

And the “anti-biofilm properties against fungal biofilms” value [4]?
The value was “reduction by less than two-fold”.

What about the “effect on bacterial biofilm growth” value [6] of the same compound?
The value was “support (improve) bacterial biofilm growth”.

`N[C@@H](Cc1c[nH]c2ccccc12)C(=O)O` [Tryptophan, L-tryptophan] was tested. Which “effect on bacterial or fungal biofilms” value [1] did it give?
Its value is “neutral”.

`N[C@@H](Cc1ccc(O)cc1)C(=O)O` [Tyrosine, L-tyrosine] was tested. Which “effect on bacterial or fungal biofilms” value [1] did it give?
The value was “neutral”.

How did the “Promote F Biofilm” value (C. albicans biofilms [2]) turn out when `CC(C)[C@H](N)C(=O)O` [Valine, L-valine] was run?
Its value is “● (a single dot [i.e. ●] signifies minor effect (from about 10 to about 30% change))”.

What about the inhibition at 1 % [3] of the same compound?
The inhibition at 1 % was 10 to 30%.

What about the “effect on fungal biofilm growth” value [4] of the same compound?
Its value is “support (improve) fungal biofilm growth”.
